Measurements published in PubChem BioAssay (NCI).
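GI50 = concentration required for 50% inhibition of growth. The concentration for full growth arrest is given as TGI.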

Legend:
Test in all cases: NCI tumour cell line growth inhibition, 384-well format
[1] = test system: 786-0 renal
[2] = test system: A498 renal
[3] = test system: A549 NSCLC
[4] = test system: ACHN renal
[5] = test system: BT-549 breast
[6] = test system: CAKI-1 renal
[7] = test system: CCRF-CEM leukemia
[8] = test system: COLO 205 colon
[9] = test system: DU-145 prostate
[10] = test system: EKVX NSCLC
[11] = test system: HCC-2998 colon
[12] = test system: HCT-15 colon
[13] = test system: HL-60(TB) leukemia
[14] = test system: HOP-62 NSCLC
[15] = test system: HOP-92 NSCLC
[16] = test system: HS 578T breast
[17] = test system: HT29 colon
[18] = test system: IGROV1 ovarian
[19] = test system: KM12 colon
[20] = test system: M14 melanoma
[21] = test system: MALME-3M melanoma
[22] = test system: MCF7 breast
[23] = test system: MDA-MB-231 breast
[24] = test system: MDA-MB-435 melanoma
[25] = test system: MDA-MB-468 breast
[26] = test system: MOLT-4 leukemia
[27] = test system: NCI-H226 lung
[28] = test system: NCI-H23 lung
[29] = test system: NCI-H322M lung
[30] = test system: NCI-H460 NSCLC
[31] = test system: NCI-H522 lung
[32] = test system: NCI/ADR-RES ovarian
[33] = test system: OVCAR-3 ovarian
[34] = test system: OVCAR-4 ovarian
[35] = test system: OVCAR-5 ovarian
[36] = test system: OVCAR-8 ovarian
[37] = test system: PC-3 prostate
[38] = test system: RPMI-8226 leukemia
[39] = test system: RXF 393 renal
[40] = test system: SF-268 CNS
[41] = test system: SF-295 CNS
[42] = test system: SF-539 CNS
[43] = test system: SK-MEL-2 melanoma
[44] = test system: SK-MEL-28 melanoma
[45] = test system: SK-MEL-5 melanoma
[46] = test system: SK-OV-3 ovarian
[47] = test system: SN12C renal
[48] = test system: SNB-19 CNS
[49] = test system: SNB-75 CNS
[50] = test system: SR leukemia
[51] = test system: SW-620 colon
[52] = test system: T-47D breast
[53] = test system: TK-10 renal
[54] = test system: U251 glioblastoma
[55] = test system: UACC-257 melanoma
[56] = test system: UACC-62 melanoma
[57] = test system: HCT-116 colon
[58] = test system: K-562 leukemia
[59] = test system: LOX IMVI melanoma
[60] = test system: UO-31 renal

Nc1n[n+](=O)c2ccccc2n1O
GI50 [1]: 59.8 µM
TGI [1]: > 100 µM
GI50 [2]: 38.7 µM
TGI [2]: > 100 µM
GI50 [3]: 47 µM
TGI [3]: > 100 µM
GI50 [4]: 27.2 µM
TGI [4]: 69.8 µM
GI50 [5]: 24.1 µM
TGI [5]: 65.1 µM
GI50 [6]: 36.2 µM
TGI [6]: > 100 µM
GI50 [7]: 20.5 µM
TGI [7]: 47.5 µM
GI50 [8]: 35.8 µM
TGI [8]: > 100 µM
GI50 [9]: 43.5 µM
TGI [9]: > 100 µM
GI50 [10]: 33.1 µM
TGI [10]: > 100 µM
GI50 [11]: 35.8 µM
TGI [11]: > 100 µM
GI50 [12]: 32 µM
TGI [12]: > 100 µM
GI50 [13]: 20.2 µM
TGI [13]: 40.5 µM
GI50 [14]: 22.5 µM
TGI [14]: 66.6 µM
GI50 [15]: 20.3 µM
TGI [15]: 65.5 µM
GI50 [16]: 20 µM
TGI [16]: > 100 µM
GI50 [17]: 69.7 µM
TGI [17]: > 100 µM
GI50 [18]: 36.7 µM
TGI [18]: > 100 µM
GI50 [19]: 41.7 µM
TGI [19]: > 100 µM
GI50 [20]: 24.5 µM
TGI [20]: 65.6 µM
GI50 [21]: 27.8 µM
TGI [21]: 81.4 µM
GI50 [22]: 57.6 µM
TGI [22]: > 100 µM
GI50 [23]: 70 µM
TGI [23]: > 100 µM
GI50 [24]: > 100 µM
TGI [24]: > 100 µM
GI50 [25]: 6.96 µM
TGI [25]: 23.1 µM
GI50 [26]: 12.3 µM
TGI [26]: 24.8 µM
GI50 [27]: 39.4 µM
TGI [27]: > 100 µM
GI50 [28]: 18 µM
TGI [28]: 46.5 µM
GI50 [29]: > 100 µM
TGI [29]: > 100 µM
GI50 [30]: 18.8 µM
TGI [30]: 61.6 µM
GI50 [31]: 11.9 µM
TGI [31]: 44.1 µM
GI50 [32]: 51.4 µM
TGI [32]: > 100 µM
GI50 [33]: 35.1 µM
TGI [33]: > 100 µM
GI50 [34]: 24.5 µM
TGI [34]: 73 µM
GI50 [35]: > 100 µM
TGI [35]: > 100 µM
GI50 [36]: 37.7 µM
TGI [36]: > 100 µM
GI50 [37]: 46.4 µM
TGI [37]: > 100 µM
GI50 [38]: 13.3 µM
TGI [38]: 31.4 µM
GI50 [39]: 36.8 µM
TGI [39]: > 100 µM
GI50 [40]: 24.3 µM
TGI [40]: 73.5 µM
GI50 [41]: 26.1 µM
TGI [41]: > 100 µM
GI50 [42]: 58.3 µM
TGI [42]: > 100 µM
GI50 [43]: 42.2 µM
TGI [43]: 90.5 µM
GI50 [44]: > 100 µM
TGI [44]: > 100 µM
GI50 [45]: 14.7 µM
TGI [45]: 34.3 µM
GI50 [46]: 17.7 µM
TGI [46]: 70.5 µM
GI50 [47]: 22.3 µM
TGI [47]: > 100 µM
GI50 [48]: 48.2 µM
TGI [48]: > 100 µM
GI50 [49]: 20 µM
TGI [49]: 60.3 µM
GI50 [50]: 4.04 µM
TGI [50]: 13.5 µM
GI50 [51]: 72.5 µM
TGI [51]: > 100 µM
GI50 [52]: 24.1 µM
TGI [52]: > 100 µM
GI50 [53]: 69.8 µM
TGI [53]: > 100 µM
GI50 [54]: 46.7 µM
TGI [54]: > 100 µM
GI50 [55]: 68.2 µM
TGI [55]: > 100 µM
GI50 [56]: 20.6 µM
TGI [56]: 59.9 µM

CC1(C)CCC2(CC1)N[C@@H](C(=O)N[C@@H]1CC[C@@H](C(N)=O)OC1)[C@H](c1ccnc(Cl)c1F)[C@]21C(=O)Nc2cc(Cl)ccc21
GI50 [1]: 2.02 µM
TGI [1]: 4.3 µM
GI50 [2]: 0.0244 µM
TGI [2]: 0.971 µM
GI50 [3]: 0.0746 µM
TGI [3]: 1.3 µM
GI50 [4]: 0.0285 µM
TGI [4]: 0.65 µM
GI50 [5]: 1.74 µM
TGI [5]: 3.78 µM
GI50 [6]: < 0.01 µM
TGI [6]: 0.347 µM
GI50 [7]: 1.92 µM
TGI [7]: 3.43 µM
GI50 [8]: 1.91 µM
TGI [8]: 3.42 µM
GI50 [9]: 2.66 µM
TGI [9]: 6.74 µM
GI50 [11]: 1.34 µM
TGI [11]: 2.7 µM
GI50 [57]: 0.0352 µM
TGI [57]: 1.39 µM
GI50 [12]: 1.91 µM
TGI [12]: 3.69 µM
GI50 [13]: 2.11 µM
TGI [13]: 3.55 µM
GI50 [14]: 1.85 µM
TGI [14]: 3.78 µM
GI50 [15]: 1.71 µM
TGI [15]: 3.53 µM
GI50 [17]: 1.73 µM
TGI [17]: 3.24 µM
GI50 [18]: 0.224 µM
TGI [18]: 2.44 µM
GI50 [58]: 1.64 µM
TGI [58]: 3.03 µM
GI50 [19]: 1.98 µM
TGI [19]: 3.82 µM
GI50 [59]: 0.345 µM
TGI [59]: 1.88 µM
GI50 [20]: 0.0473 µM
TGI [20]: 2.03 µM
GI50 [21]: 0.0777 µM
TGI [21]: 1.04 µM
GI50 [22]: 0.0312 µM
TGI [22]: 0.741 µM
GI50 [23]: 1.82 µM
TGI [23]: 3.4 µM
GI50 [24]: 1.81 µM
TGI [24]: 3.44 µM
GI50 [25]: 1.93 µM
TGI [25]: 3.71 µM
GI50 [26]: < 0.01 µM
TGI [26]: 0.0119 µM
GI50 [27]: 0.0118 µM
TGI [27]: 0.0659 µM
GI50 [28]: 2.04 µM
TGI [28]: 5.35 µM
GI50 [29]: 2.3 µM
TGI [29]: 5.99 µM
GI50 [30]: 0.0312 µM
TGI [30]: 1.13 µM
GI50 [31]: 1.58 µM
TGI [31]: 3.02 µM
GI50 [32]: 14 µM
TGI [32]: 27.2 µM
GI50 [33]: 1.66 µM
TGI [33]: 3.22 µM
GI50 [34]: 1.91 µM
TGI [34]: 5.55 µM
GI50 [35]: 2.28 µM
TGI [35]: 5.34 µM
GI50 [36]: 2.4 µM
TGI [36]: 5.61 µM
GI50 [37]: 1.84 µM
TGI [37]: 3.33 µM
GI50 [38]: 1.66 µM
TGI [38]: 3.04 µM
GI50 [39]: 1.42 µM
TGI [39]: 2.84 µM
GI50 [40]: 2.12 µM
TGI [40]: 4.56 µM
GI50 [41]: 1.74 µM
TGI [41]: 3.29 µM
GI50 [42]: 1.66 µM
TGI [42]: 3.12 µM
GI50 [43]: 1.88 µM
TGI [43]: 3.32 µM
GI50 [44]: 1.71 µM
TGI [44]: 3.15 µM
GI50 [45]: 0.668 µM
TGI [45]: 2.07 µM
GI50 [46]: 1.8 µM
TGI [46]: 3.67 µM
GI50 [47]: 2.67 µM
TGI [47]: 7.98 µM
GI50 [48]: 2.35 µM
TGI [48]: 5.15 µM
GI50 [50]: < 0.01 µM
GI50 [51]: 3.32 µM
TGI [51]: 11.1 µM
GI50 [52]: 1.63 µM
TGI [52]: 4.1 µM
GI50 [53]: 2.5 µM
TGI [53]: 7.33 µM
GI50 [54]: 2.08 µM
TGI [54]: 4.45 µM
GI50 [55]: 0.0946 µM
TGI [55]: 0.49 µM
GI50 [56]: < 0.01 µM
TGI [56]: 1.07 µM
GI50 [60]: 0.0785 µM
TGI [60]: 0.335 µM
